Laboratory results taken from patent publication US20260374782A1, “NEW COMPOUNDS, PROCESSES FOR PREPARING THE SAME AND THEIR USE AS DRUGS” (B&A ONCOMEDICAL, priority 2022, published 2026).
Where two headings read alike, the source gives them in different places.

Key:
NKCC2 = conditions: in words; cited from earlier work
[1] = Fragile X, Tuberous Sclerosis, Down syndrome, or Parkinson Disease; cited from earlier work
NKCC1-KO HEK293 cells = assay: K+ influx (83Rb uptake) in NKCC1-KO HEK293 cells; type: cell-based, human
Procedure: A. Contribution of NKCC1 to K^+ influx in native HEK293 cells under isosmotic (basal) conditions. K^+ influx was measured in untreated cells (Cntr), cells exposed to 100 μM ouabain (ouab), 20 μM bumetanide (bum), or both. B. Signal separation between native HEK293 cells with and without 20 μM bumetanide. Cells were tested in a hypertonic saline and in the presence of 100 μM ouabain. These conditions became our standard conditions for drug testing. C. Absence of bumetanide-sensitive K^+ influx in A-NKCC1 HEK293 cells. Note that the K^+ influx was reduced to basal levels.
NKCC1 expression was eliminated from HEK293 cells using CRISPR/cas9. Cells were transfected with a vector expressing a cas9-EGFP fusion protein and a guide RNA specific to a NKCC1 sequence ([…]; SEQ ID NO: 1) located within exon 1. Two days post transfection, cells were FACS sorted and cells expressing EGFP and cas9 (green cells) were plated at 1 cell per well in 96 well plates. Cells were grown to confluence, duplicated, and tested for NKCC1 function using Tl+ (another congener of K^+) and a thallium sensitive fluorescent dye in the presence or absence of bumetanide.

NKCC1 = target: T1, NKCC1 (Homo sapiens, UniProt P55011); assay: NKCC1-mediated K+ influx (83Rb tracer uptake) in native HEK293 cells, hypertonic saline, 100 μM ouabain; type: cell-based
T1 construct: endogenous in cells; host or cells: native HEK293 cells
T1 sequence (P55011 1-1212): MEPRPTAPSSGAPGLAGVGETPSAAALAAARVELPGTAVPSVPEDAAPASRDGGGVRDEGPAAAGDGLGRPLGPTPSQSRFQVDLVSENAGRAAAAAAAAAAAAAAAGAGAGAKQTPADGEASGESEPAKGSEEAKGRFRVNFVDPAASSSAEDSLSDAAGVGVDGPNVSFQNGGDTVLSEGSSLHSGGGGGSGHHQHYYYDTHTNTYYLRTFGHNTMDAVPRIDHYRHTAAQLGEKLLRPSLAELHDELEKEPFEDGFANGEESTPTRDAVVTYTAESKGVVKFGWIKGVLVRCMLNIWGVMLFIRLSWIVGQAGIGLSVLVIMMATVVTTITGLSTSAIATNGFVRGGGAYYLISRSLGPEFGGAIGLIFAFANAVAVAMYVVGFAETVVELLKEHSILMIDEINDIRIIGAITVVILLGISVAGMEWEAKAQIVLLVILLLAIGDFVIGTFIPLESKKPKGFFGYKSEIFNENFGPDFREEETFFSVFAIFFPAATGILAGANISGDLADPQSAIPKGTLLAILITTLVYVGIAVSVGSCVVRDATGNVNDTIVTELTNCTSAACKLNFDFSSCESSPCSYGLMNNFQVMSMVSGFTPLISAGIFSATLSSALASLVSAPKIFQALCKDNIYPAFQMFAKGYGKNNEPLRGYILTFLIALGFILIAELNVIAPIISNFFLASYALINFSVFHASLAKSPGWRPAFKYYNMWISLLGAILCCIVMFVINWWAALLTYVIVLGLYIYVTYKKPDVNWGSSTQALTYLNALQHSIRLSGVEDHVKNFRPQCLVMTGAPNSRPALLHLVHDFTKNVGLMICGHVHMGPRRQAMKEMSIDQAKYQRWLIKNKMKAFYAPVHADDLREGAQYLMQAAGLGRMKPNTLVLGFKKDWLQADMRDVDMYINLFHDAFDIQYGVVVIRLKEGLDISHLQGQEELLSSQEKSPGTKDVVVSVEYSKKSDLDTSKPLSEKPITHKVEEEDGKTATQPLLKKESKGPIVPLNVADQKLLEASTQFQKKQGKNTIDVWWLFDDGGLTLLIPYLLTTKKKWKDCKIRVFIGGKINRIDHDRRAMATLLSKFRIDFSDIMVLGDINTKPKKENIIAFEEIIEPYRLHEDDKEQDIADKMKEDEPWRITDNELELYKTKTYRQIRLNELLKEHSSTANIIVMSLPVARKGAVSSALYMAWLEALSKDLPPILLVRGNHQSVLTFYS
Procedure, shortened: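 Native cells in slightly hypertonic saline with 100 μM ouabain; 15 min preincubation then 15 min 83Rb uptake (0.25 μCi/mL), scintillation counting normalized to protein. Compounds at 2 μM and 20 μM; flux scaled 1000 (no drug) to 0 (20 μM bumetanide), triplicate dishes.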

[2] = cited from earlier work
[3] = HEK293, 2 μM, no drug = 1000, 20 μM bumetanide = 0, read-out: NKCC1 mediated flux inhibition at 2 μM (%)
[4] = HEK293, 20 μM, no drug = 1000, 20 μM bumetanide = 0, read-out: NKCC1 mediated flux inhibition at 20 μM (%)
[5] = 2 μM, native HEK293, read-out: Percent inhibition of drugs on NKCC1, 2 uM
[6] = 20 μM, native HEK293, read-out: Percent inhibition of drugs on NKCC1, 20 uM

SMILES | inhibition at 2 µM (NKCC1; [3]) | inhibition at 20 µM (NKCC1; [4]) | other results
CCCCNc1cc(C(=O)O)cc(S(N)(=O)=O)c1Oc1ccccc1 [Bumetanide] |  |  | diuretic potency (NKCC2): high diuretic potency; attenuation of severity of disorders [1]: attenuation; effect on K+ influx in NKCC1-KO cells (NKCC1-KO HEK293 cells): no longer affected K^+ influx; flux (normalized) (NKCC1; 2 μM, no drug flux=1000, 20 μM bumetanide flux=0, n=6): 171±21; brain levels lower than the plasma ([2]; brain vs plasma): 200-300 fold; blood brain barrier permeability ([2]; in words): quite impermeable
CCCCNc1cc(C(=O)NCC(F)(F)F)cc(S(=N)(=O)NC2CCOCC2)c1Oc1ccccc1 (centres unmarked) [Compound 123, 3-(butylamino)-4-phenoxy-5-[(tetrahydropyran-4-ylamino)sulfonimidoyl]-N-(2,2,2-trifluoroethyl)benzamide] | 30 to 50% | 10 to 30% | 
CCCCNc1cc(C(=O)OC)cc(S(=O)(=O)Nc2ccccc2)c1Oc1ccccc1 [Compound 124, methyl 3-(butylamino)-4-phenoxy-5-(phenylsulfamoyl)benzoate] | 30 to 50% | 30 to 50% | 
CCCCNc1cc(C(=O)O)cc(S(=O)(=O)Nc2ccccc2)c1Oc1ccccc1 [Compound 125, 3-(butylamino)-4-phenoxy-5-(phenylsulfamoyl)benzoic acid] | ≥ 75% | ≥ 75% | 
CCCCNc1cc(-c2nnn[nH]2)cc(S(=O)(=O)Nc2ccccc2)c1Oc1ccccc1 [Compound 126, 3-(butylamino)-2-phenoxy-N-phenyl-5-(1H-tetrazol-5-yl)benzenesulfonamide] | 30 to 50% | ≥ 75% | 
CCCCNc1cc(-c2nc(=O)o[nH]2)cc(S(=O)(=O)Nc2ccccc2)c1Oc1ccccc1 [Compound 127, 3-(butylamino)-5-(5-oxo-2H-1,2,4-oxadiazol-3-yl)-2-phenoxy-N-phenyl-benzenesulfonamide] | 10 to 30% | 30 to 50% | 
CCCCNc1cc(C(=O)O)cc(S(C)(=N)=O)c1Oc1ccccc1 (centres unmarked) [Compound 130, 3-(butylamino)-5-(methylsulfonimidoyl)-4-phenoxy-benzoic acid] | 10 to 30% | 50 to 75% | 
CCCCN=S(C)(=O)c1cc(C(=O)O)cc(NCCCC)c1Oc1ccccc1 (centres unmarked) [Compound 131, 3-(butylamino)-5-(N-butyl-S-methyl-sulfonimidoyl)-4-phenoxy-benzoic acid] | 30 to 50% | ≥ 75% | 
CN=S(C)(=O)c1cc(C(=O)OC)cc(N)c1Oc1ccccc1 (centres unmarked) [Compound 132, methyl 3-amino-5-(N,S-dimethylsulfonimidoyl)-4-phenoxy-benzoate] | 30 to 50% | 10 to 30% | 
CCCCNc1cc(C(=O)OC)cc(S(C)(=O)=NC)c1Oc1ccccc1 (centres unmarked) [Compound 133, methyl 3-(butylamino)-5-(N,S-dimethylsulfonimidoyl)-4-phenoxy-benzoate] | 30 to 50% | 10 to 30% | 
CCCCNc1cc(C(=O)O)cc(S(C)(=O)=NC)c1Oc1ccccc1 (centres unmarked) [Compound 134, 3-(butylamino)-5-(N,S-dimethylsulfonimidoyl)-4-phenoxy-benzoic acid] | 30 to 50% | 50 to 75% | 
C[C@@H]1O[C@@H](O[C@H]2C[C@@H](O)[C@]3(CO)[C@H]4[C@H](O)C[C@]5(C)[C@@H](C6=CC(=O)OC6)CC[C@]5(O)[C@@H]4CC[C@]3(O)C2)[C@H](O)[C@H](O)[C@H]1O [Ouabain, ouabain, reference compound] |  |  | effect on flux not mediated by the cotransporter (NKCC1; 100 μM, inhibitor of the Na+/K+ pump): greatly reduced the flux not mediated by the cotransporter
CCCCNc1cc(C(=O)O)cc(S(N)(=O)=O)c1Oc1ccccc1 [Ref 1, bumetanide, reference compound] |  |  | inhibition at 2 µM (NKCC1; [5]): 87%; inhibition at 20 µM (NKCC1; [6]): 100%; K+ influx in the presence of compound (NKCC1; 20 μM, native HEK293 without compound 7000-9000): 600-900 pmoles K+ per mg protein per m
NS(=O)(=O)c1cc(C(=O)O)c(NCc2ccco2)cc1Cl [Ref 2, furosemide, reference compound] |  |  | inhibition at 2 µM (NKCC1; [5]): 32%; inhibition at 20 µM (NKCC1; [6]): 77%
